Data reported in patent US11254986B2, “Gene signature for immune therapies in cancer” (ALMAC DIAGNOSTICS LIMITED, priority 2015, dated 2022).

Experiments:
[1] = test system: CXCL10 and CCL5 chemokine production in MDA-MB-436 EV cells; assay: Chemokine expression after small molecule inhibitors of ATM, ATR and DNAPK; format: cell-based; details: DDRD positive cells (MDA-MB-436 EV), compared to the DMSO control, FIG. 16
Protocol: (§1) The product of Reverse Transcription was diluted 1:10 in Nuclease Free Water (NFW). Each 10 μl PCR reaction, consisted of 0.5 μl of 10 μM Forward primer, 0.5 μl of 10 μM Reverse primer, 5 μl of 2× LightCycler® 480 SYBR Green I Master mix (Roche), 1.5 μl NFW and 2.5 μl diluted Reverse Transcription product. These 10 μl reactions were pipetted into wells of a LightCycler® 480 multiwell 96 plate (Roche), the plate was then sealed using clear adhesive film (Roche). The plate was placed into the LightCycler® 480 (Roche) and run with the following protocol. (95° C. for 10 mins, 45 cycles of; 95° C. for 15 secs, 55° C. for 30 secs and 72° C. for 30 secs, finishing with a melt curve for confirmation of primer specificity. All qPCR data was analysed using the LightCycler® 480 software provided by Roche. For analysis, the Cp value from a technical duplicate was calculated and the relative amount of a gene was calculated Cp value to an in-run standard curve. Each mean value was then normalised to the mean concentration of the housekeeping gene PUM1 within the corresponding sample, by dividing the concentration of the target gene by the concentration of the house keeping gene. Relative expression refers to the gene expression levels that have been normalised to the housekeeping gene and made relative to the associated control samples. From these normalized values, the fold changes for each gene were calculated and the average of three individual fold changes were derived from three independent experimental triplicates. The unpaired, two-tailed students T-test available on GraphPad Prism 5.0 software was used to detect statistical significance.
(§2) For analysis of effects of ATM, ATR and DNAPK on cytokine expression, cells were seeded in six well plates at ˜60% confluency. Following incubation overnight, small molecule inhibitors of ATM (Ku60019, Selleck Chem) at a dose of 1 μm, ATR (ETP46464, Selleck Chem) at a dose of 5 μm and DNAPK (Nu7441, Selleck Chem) at a dose of 5 μm were added. At 24 hours, RNA and protein samples were obtained for analysis. For analysis of the effects of DNA damaging agents and paclitaxel on cytokine expression, cells were seeded in six well plates at ˜60% confluency. Following incubation overnight, IC50 doses of Cisplatin and Paclitaxel (obtained from fresh Pharmacy stock) and Hydroxyurea (Sigma Aldrich) were added for 24 hours to 48 hours. At the appropriate timepoint, RNA and protein samples were obtained for analysis.

[2] = test system: HCC1937 parental and HCC1937-BR cells; details: HCC1937 BRCA1 mutant cell-line relative to BRCA1 corrected cell-line (HCC1937-BR); FIG. 8C
Protocol: The cell-lines were routinely maintained in RPMI-1640 medium supplemented with 50 U penicillin/ml, 50 μg streptomycin/ml, 2 mM glutamine, 1 mM Sodium Pyruvate and 20% (v/v) fetal bovine serum (FBS). The HCC1937-EV and HCC937-BR cell-lines also required 0.2 ml/mg geneticin. Cell-lines were cultured at 37° C. with a humidified atmosphere of 5% CO2.
Twenty-four hours following seeding the cells were exposed to medium containing increasing doses of drug. Cell medium was replenished every 4-5 days. After 12-14 days the cells were fixed in methanol, stained with crystal violet and counted. The percentage survival of control for a given dose was calculated as the plating efficiencies for that dose divided by the plating efficiencies of vehicle-treated cells. Survival curves and half maximal inhibitory concentration (IC50) values were calculated using GraphPad Prism.

[3] = test system: CXCL10 and CCL5 expression; assay: qRT-PCR of chemokine expression after DNA damaging agents, paclitaxel or nocodazole; format: cell-based
Protocol: Reverse transcription was performed using the First Strand cDNA synthesis kit (Roche). 500 ng of RNA was reverse transcribed according to manufacturer's instructions. Exon-spanning qPCR primers were designed using Roche Universal Probe Library Assay Design Centre and were used at a concentration of 0.5 μM. The following primer sequences were used:
To preform absolute quantification from qPCR, we used a standard curve method. The efficiency of each primer set was derived from the standard curve using the following equation: E=10^(−1/slope)
as §1
as §2, with “Following incubation overnight, IC50 doses of Cisplatin and Paclitaxel (obtained from fresh Pharmacy stock) and Hydroxyurea (Sigma Aldrich) were added for 24 hours to 48 hours. At the appropriate timepoint, RNA and protein samples were obtained for analysis.” left out

[4] = test system: HeLa, HCC1937 EV and MDA-MB-436 EV cells; assay: Cell cycle analysis (propidium iodide, flow cytometry); format: cell-based; details: anti-mitotic agent treatment; FIG. 15
Protocol: as §2
Cells were trypsinised and fixed in 70% ethanol, incubated with RNase A and propidium iodide (P1) and analysed using a BD FACSCalibur™ (BD Biosciences, CA, USA). Data was analysed using Flow Jo software to perform cell cycle analysis.

[5] = test system: cytosolic DNA in HeLa cells; assay: PicoGreen fluorescent staining of double-stranded DNA, confocal microscopy; format: cell-based; details: IC50 doses, FIG. 19C
Text: We probed cytosolic fractions of DDRD positive cells MDA-436-EV and +BRCA1, and HCC1937-EV and +BRCA1 cells for the presence of Histone H3, and found Histone H3 protein expression was increased in the repair deficient lines (EV) (FIG. 19A, top panel of blots). […] PicoGreen fluorescent staining was used to detect double-stranded DNA (ds-DNA). […] This increase in cytosolic DNA was however not observed in response to treatment with Paclitaxel (HeLa+Paclitaxel IC50) (FIG. 19C).

PDL1 = PDL1 expression in RKO cells after Interferon-γ, qPCR and western blot; format: cell-based; details: for PDL1 gene expression levels (fold change): RKO Par, RKO Fanc C and RKO Fanc G cells, FIG. 27B
Protocol: as §1, with “Relative expression refers to the gene expression levels that have been normalised to the housekeeping gene and made relative to the associated control samples.” left out, “The unpaired, two-tailed students T-test available on GraphPad Prism 5.0 software was used to detect statistical significance.” left out
Adherent cells formed whole cell lysates suspended in RIPA buffer containing phosphatase and protease inhibitors (Roche Inhibitor cocktails, Germany). […] Protein was quantified using the BCA Assay (Pierce, Rockford, Ill., USA) according to manufacturer's instructions using a plate reader. […] Results were then visualized and recorded using Luminata Crescendo Western HRP substrate (Millipore, UK) and an alpha imager.
The cytotoxic effects of lymphocytes on cancer cells was measured using LIVE/DEAD® Cell-Mediated Cytotoxicity Kit (Life technologies, Paisley, UK.) RKO parental and Fanc G cells were trypsinised, counted and stained with green-fluorescent membrane stain DiOC18 in PBS at a concentration of 2 μl of stain per ml. […]

[6] = test system: RKO Parental and RKO FANCG-/- cells; assay: Lymphocyte (PBMC) mediated cytotoxicity, LIVE/DEAD Cell-Mediated Cytotoxicity Kit; format: cell-based; details: pre-treatment of cancer cells, PBMC ratio 5:1, p-value<0.05, FIG. 27A
Protocol: The cytotoxic effects of lymphocytes on cancer cells was measured using LIVE/DEAD® Cell-Mediated Cytotoxicity Kit (Life technologies, Paisley, UK.) RKO parental and Fanc G cells were trypsinised, counted and stained with green-fluorescent membrane stain DiOC18 in PBS at a concentration of 2 μl of stain per ml. Cells were incubated with the stain for 20 minutes at 37° C. before being seeded into 12 well plates at a density of 1×10^5 cells per well and left to adhere overnight. The next day PMBCs were counted and added to RKO cell cultures at the ratios indicated. For 1:1 ratio 1×10^5 PBMCs were added, for 5:1 ratio 5×10^5 PBMCs were added. The co-cultures were incubated for 4 hours before cells were collected for analysis by flow cytometry. A BD FACSCalibur™ (BD Biosciences, CA, USA) was used for the analysis of samples and Flow Jo software was used for data analysis. Cells were treated with interferon-γ at a concentration of 20 ng/ml for 16 hours.

## CC(C)(C#N)c1ccc(N2C(=O)OCc3cnc4ccc(-c5cnc6ccccc6c5)cc4c32)cc1 [ETP-46464]
[1]
  CXCL10 and CCL5 chemokine production / expression levels: No significant decreases

## O=C(c1cc(Cc2n[nH]c(=O)c3ccccc23)ccc1F)N1CCCNCC1 [KU0058948]
[2]
  sensitivity to PARP-1 inhibitor (clonogenic survival): more sensitive

## C[C@@H]1CN(CC(=O)Nc2ccc3c(c2)Cc2cccc(-c4cc(=O)cc(N5CCOCC5)o4)c2S3)C[C@H](C)O1 [Ku60019]
[1]
  CXCL10 and CCL5 chemokine production / expression levels: No significant decreases

## COC(=O)Nc1nc2ccc(C(=O)c3cccs3)cc2[nH]1 [Nocodazole]
[3]; anti-mitotic agent treatment, FIG. 15A
  mRNA expression of CXCL10: reduced mRNA expression of CXCL10
[4]
  cell cycle arrest: arrest in the M phase

## O=c1cc(N2CCOCC2)oc2c(-c3cccc4c3sc3ccccc34)cccc12 [Nu7440]
[1]
  CXCL10 and CCL5 chemokine production / expression levels: No significant decreases
[1]; listed as DNAPKi
  CXCL10 and CCL5 chemokine production / expression levels: significantly increased

## CC(=O)O[C@H]1C(=O)[C@@]2(C)[C@H]([C@H](OC(=O)c3ccccc3)[C@]3(O)C[C@H](OC(=O)[C@H](O)[C@@H](NC(=O)c4ccccc4)c4ccccc4)C(C)=C1C3(C)C)[C@]1(OC(C)=O)CO[C@@H]1C[C@@H]2O [Paclitaxel]
[3]; HeLa, HCC1937 EV and MDA-MB-436 EV cells, IC-50 doses, compared to DMSO control, FIG. 14
  CXCL10 and CCL5 relative expression: not significantly increased
[5]
  cytosolic DNA (PicoGreen, confocal microscopy): not observed

## Interferon-γ: Interferon-γ, cells treated at 20 ng/ml for 16 hours
PDL1; RKO Par and RKO Fanc G cells, pre-treatment, FIG. 27C
  PDL1 protein level (western blotting): enhanced PDL1 levels
PDL1
  PDL1 gene expression levels (fold change): significantly increases PDL1 gene expression levels
PDL1; listed as IFN-γ
  PDL1 gene expression levels (fold change): drives PDL-1 expression in DDRD+

B1: Interferon-γ: Interferon-γ, cells treated at 20 ng/ml for 16 hours (protein, UniProt P01579 24-161, looked up)
Interferon gamma: QDPYVKEAENLKKYFNAGHSDVADNGTLFLGILKNWKEESDRKIMQSQIVSFYFKLFKNFKDDQSIQKSVETIKEDMNVKFFNSNKKKRDDFEKLTNYSVTDLNVQRKAIHELIQVMAELSPAAKTGKRKRSQMLFRG
[6]
  lymphocyte mediated cytotoxicity, differential between RKO FANCG-/- and RKO Parental cells: extends the differential cytotoxicity
[6]; listed as IFN-γ
  lymphocyte mediated cytotoxicity, differential between RKO FANCG-/- and RKO Parental cells: protects against PBMC mediated cytotoxicity
